Assay results as given in US20250288587A1, “Methods of Treating Fibrosis” (Athira Pharma, Inc., priority 2022, published 2025).

Columns and labels:
Format in all cases: in vivo
[1] = system: pulmonary LPS-stimulated rats; assay: Immune cell infiltration in BALF, LPS-induced acute pulmonary inflammation; settings: 0.0075 mg/kg IV, 24 h and 0.5 h before LPS; BALF 4 h post LPS
[2] = system: BALB/c mice, CCl4 mouse model of liver fibrosis; assay: CCl4-induced liver fibrosis, plasma AST; settings: for AST in plasma, improvement compared to disease control: from study day 21, termination day 43
Procedure: Liver fibrosis in BALB/c mice was induced by biweekly intraperitoneal injections of carbon tetrachloride (CCl4) from study day 0 to 43. Mice were treated with vehicle, Compound 1a, or positive control, SB535334, beginning at study day 21. At termination (study day 43), plasma was tested for liver function via levels of aspartate aminotransferase (AST).
AST can be used as a marker of liver damage, because increased levels are released in the blood stream in chronic liver disease.

[3] = system: C57BL/6 mice, bleomycin-induced pulmonary fibrosis; assay: Bleomycin-induced pulmonary fibrosis in mice; parameters: key to Collagen, improvement in BLM-induced alterations versus disease control / Alpha-Smooth Muscle Actin, improvement in BLM-induced alterations versus disease control / Body Weight, improvement in BLM-induced alterations versus disease control / Right Lung Weight, improvement in BLM-induced alterations versus disease control / Hydroxyproline, improvement in BLM-induced alterations versus disease control: + = >5-25% improvement vs disease control; ++ = >26-50% improvement vs disease control; +++ = >51-100% improvement v disease control; NS means not significant; settings: for Body Weight, improvement in BLM-induced alterations versus disease control / Right Lung Weight, improvement in BLM-induced alterations versus disease control: days 3-21; for Collagen, improvement in BLM-induced alterations versus disease control / Hydroxyproline, improvement in BLM-induced alterations versus disease control / TGF-Beta, improvement in BLM-induced alterations versus disease control: right lung homogenate
Procedure: Lung fibrosis in C57BL/6 mice is induced by a single […] injection of the chemotherapy drug bleomycin. Mice are treated with vehicle or test compound. At termination (study day 28), one lung is weighed, with increased weight indicating more advanced fibrosis. Lung tissue is also homogenized for hydroxyproline, collagen, and TGF-β quantification. Lung tissue is also formalin-fixed and further processed for H&E, collagen morphometry, Ashcroft's score, and both α-SMA and TUNEL expression analyses. Plasma is analyzed by multiplex bead array for MMP-2, MMP-9, IL-1β, IL-6, IL-12, and TNF-α expression.
The experimental design described in Example B1 with the following changes was used to assess the ability of Compound 1a to reduce pulmonary fibrosis. Briefly, Male C57BL/6 mice (Envigo) […] were used. The mice were 3.5-4 months old and ˜24-30 g by weight. On day −1 animals were randomized based on body weight and the animals were assigned with a permanent number by ear notching. Cages were identified by cage cards indicating the study code, group number, sex, dose, cage number, number of animals and animal number details.
On day 0, all animals (except the sham control animals) were administered bleomycin (0.03 U in 50 μl normal saline) intratracheally (i.t.) under Ketamine+Xylazine anesthesia. The sham control animals were dosed with 50 μl of normal saline intratracheally. Pirfenidone was used as a positive control; this compound is known to downregulate growth factors and procollagens to reduce fibrosis and is an approved drug for the treatment of idiopathic pulmonary fibrosis.
Vehicle, pirfenidone and test Compound 1a dosing was initiated from day 3 to day 21 as described in the following Table 2. On day 21 whole blood was collected 1-hour post-dose into EDTA and then processed to plasma. Right lungs were then collected, weighed, snap frozen and later homogenized for biochemical analysis. Hydroxyproline, collagen and TGF-Beta levels were measured in the right lung homogenates.

[4] = system: CFA-stimulated rats; assay: CFA inflammatory pain model, thermal hyperalgesia (Hargreaves method); settings: Day 5, 1 hour pre-dosing; data not shown
[5] = dose 0.2 mg/kg PO daily, day 21
[6] = dose 0.8 mg/kg PO daily, day 21

CCC(C)CN1CC2N(C(=O)c3ccc(C(F)(F)F)cc3)CCC(=O)N2[C@@H](C)C1=O (some centres unmarked) [Compound 1a]
Neutrophils in BALF, reduction in cell count vs disease control [1]: ++ (++ = >25% reduction in cell count vs disease control) | Total Leukocytes in BALF, reduction in cell count vs disease control [1]: ++ (++ = >25% reduction in cell count vs disease control) | AST levels in plasma compared to CCl4-treated mice receiving vehicle ([2]; 0.5 mg/kg, 8 mg/kg, and 16 mg/kg): modest but non-significant decreases | AST in plasma, improvement compared to disease control ([2]; Dose 0.5 (mg/kg)): ++ (++ = >26-50% improvement compared to disease control) | AST in plasma, improvement compared to disease control ([2]; Dose 2 (mg/kg)): − (− = change of <5% compared to disease control) | AST in plasma, improvement compared to disease control ([2]; Dose 8 (mg/kg)): ++ (++ = >26-50% improvement compared to disease control) | AST in plasma, improvement compared to disease control ([2]; Dose 16 (mg/kg)): ++ (++ = >26-50% improvement compared to disease control) | body weight loss compared to the other treatment groups ([3]; 0.8 mg/k): slightly greater weight loss | collagen in right lung homogenate compared with pirfenidone ([3]; 2 mg/kg): about the same levels of collagen | collagen concentration in right lung homogenates ([3]; 8 mg/kg): reduced compared to the pirfenidone positive control | hydroxyproline concentration in right lung homogenates at termination ([3]; 8 mg/kg and 2 mg/kg, also less than pirfenidone-treated animals): lower concentrations of hydroxyproline | weight of whole right lungs at termination (day 21) ([3]; 8 mg/kg and 2 mg/kg, versus pirfenidone-treated animals): less than the positive control | alpha-smooth muscle actin expression ([3]; 8 mg/kg, day 21): significantly reduced expression of this marker | bleomycin-induced increases in TGF-β in right lung homogenates ([3]; all doses, day 21): significantly protected against bleomycin-induced increases in TGF-β | protection against bleomycin-induced body weight loss ([3]; all treatment groups, over the study period): did not protect against body weight loss | Body Weight, improvement in BLM-induced alterations versus disease control ([3]; dose 0.2 mg/kg PO daily): NS | Right Lung Weight, improvement in BLM-induced alterations versus disease control [3, 5]: NS | Alpha-Smooth Muscle Actin, improvement in BLM-induced alterations versus disease control [3, 5]: + (+ = >5-25% improvement vs disease control) | Collagen, improvement in BLM-induced alterations versus disease control [3, 5]: NS | Hydroxyproline, improvement in BLM-induced alterations versus disease control [3, 5]: NS | TGF-Beta, improvement in BLM-induced alterations versus disease control [3, 5]: +++ (+++ = >51-100% improvement v disease control) | Body Weight, improvement in BLM-induced alterations versus disease control ([3]; dose 0.8 mg/kg PO daily): NS | Right Lung Weight, improvement in BLM-induced alterations versus disease control [3, 6]: + (+ = >5-25% improvement vs disease control) | Alpha-Smooth Muscle Actin, improvement in BLM-induced alterations versus disease control [3, 6]: NS | Collagen, improvement in BLM-induced alterations versus disease control [3, 6]: + (+ = >5-25% improvement vs disease control) | Hydroxyproline, improvement in BLM-induced alterations versus disease control [3, 6]: NS | TGF-Beta, improvement in BLM-induced alterations versus disease control [3, 6]: +++ (+++ = >51-100% improvement v disease control) | Body Weight, improvement in BLM-induced alterations versus disease control ([3]; dose 2 mg/kg PO daily): NS | Right Lung Weight, improvement in BLM-induced alterations versus disease control ([3]; dose 2 mg/kg PO daily, day 21): + (+ = >5-25% improvement vs disease control) | Alpha-Smooth Muscle Actin, improvement in BLM-induced alterations versus disease control ([3]; dose 2 mg/kg PO daily, day 21): + (+ = >5-25% improvement vs disease control) | Collagen, improvement in BLM-induced alterations versus disease control ([3]; dose 2 mg/kg PO daily, day 21): ++ (++ = >26-50% improvement vs disease control) | Hydroxyproline, improvement in BLM-induced alterations versus disease control ([3]; dose 2 mg/kg PO daily, day 21): ++ (++ = >26-50% improvement vs disease control) | TGF-Beta, improvement in BLM-induced alterations versus disease control ([3]; dose 2 mg/kg PO daily, day 21): +++ (+++ = >51-100% improvement v disease control) | Body Weight, improvement in BLM-induced alterations versus disease control ([3]; dose 8 mg/kg PO daily): NS | Right Lung Weight, improvement in BLM-induced alterations versus disease control ([3]; dose 8 mg/kg PO daily, day 21): ++ (++ = >26-50% improvement vs disease control) | Alpha-Smooth Muscle Actin, improvement in BLM-induced alterations versus disease control ([3]; dose 8 mg/kg PO daily, day 21): ++ (++ = >26-50% improvement vs disease control) | Collagen, improvement in BLM-induced alterations versus disease control ([3]; dose 8 mg/kg PO daily, day 21): +++ (+++ = >51-100% improvement v disease control) | Hydroxyproline, improvement in BLM-induced alterations versus disease control ([3]; dose 8 mg/kg PO daily, day 21): + (+ = >5-25% improvement vs disease control) | TGF-Beta, improvement in BLM-induced alterations versus disease control ([3]; dose 8 mg/kg PO daily, day 21): +++ (+++ = >51-100% improvement v disease control) | alpha-smooth muscle actin morphometory ([3]; other doses of Compound 1a, pirfenidone doses, day 21): insignificant decreases | PWL (paw withdrawal latency) [4]: statistically significant increase
